# According to patent publication US20060183801A1, “Method of preventing or treating breast, prostate and/or cervical cancer with n, n-dimethylglycine” (FoodScience Corporation, priority 2002, published 2006):
# What was measured:
# [1] = system: A375.S2 melanoma cells; assay: Co-culture proliferation assay: DMG treated U-937 with A375.S2 melanoma cells; assay type: cell-based, human; conditions: DMG treated U-937 in co-culture
# Description: (§1) A proliferation assay was designed to determine the ability of DMG treated cytokine producing cells to inhibit growth of melanoma cell lines, breast cancer cell lines, a prostate cancer cell line, and cervical cancer cell lines. The cytokine bioassays utilizing cell proliferation assays were performed to assess modulation of inflammatory cytokine production by DMG. Cytokine bioassays are well known in the art. (Thorpe R: Developments in Biological Standardization 1999, 97:61-71 and Mire-Sluis AR: Journal of Immunological Methods 1995, 187 (2):191-199)
# (§2) The cell lines and murine B16 as indicator cells were used to observe the modulating effects of DMG. The optimum cell number per well for each cell line was determined after titration assay. Stimulated and unstimulated cytokine producing cell lines (Jurkat e6-1, EL-4, MG-63 and U-937) were treated with DMG for 24 hours prior to culture with cancer cell lines. […]
# (§3) A proliferation assay was designed to determine the ability of DMG treated cytokine producing cells to inhibit growth of human breast cancer cell lines MCF-7, BT-20 and T47D, human prostrate cancer PC-3 cell line, human cervical cancer Caski and SiHa cell lines and melanoma cell lines. […] The optimum cell number/well for each cell line was determined after a titration assay. […]
# [2] = system: Hs 294T melanoma cells; assay: Co-culture proliferation assay: DMG treated PBMC with Hs 294T melanoma cells; assay type: cell-based; conditions: Homo sapiens; PBMC treated with 100 mM DMG, Hs 294T co-culture (FIG. 14); read-out: inhibitory effect over controls (melanoma inhibition by PBMC)
# Description: (§4) Heparinized peripheral blood from healthy control volunteers was collected and layered onto room temperature (RT) polysucrose sodium diatriazoate (Histopaque 1077, Sigma Chemical Co.) in 15-ml conical tubes. These were centrifuged at 400×g for 30 minutes. Mononuclear cells were collected and washed in 10-ml phosphate buffered saline (PBS). Following a 10 min centrifugation and 250×g, the PBS were decanted and the wash step repeated. Cells were counted in a hemocytometer and adjusted to 2×10^6 cells/ml. These cells were later used in cytokine bioassays, Co-culture and in flow cytometry.
# (§5) A proliferation assay was designed to determine the ability of DMG treated cytokine producing cells to inhibit growth of human breast cancer cell lines MCF-7, BT-20 and T47D, human prostrate cancer PC-3 cell line, human cervical cancer Caski and SiHa cell lines and melanoma cell lines. Three melanoma cell lines, human A375.S2 and Hs 294T, and murine B16 as indicator cells were used to observe the modulating effects of DMG. The optimum cell number/well for each cell line was determined after a titration assay. Stimulated and unstimulated cytokine producing cell lines (Jurkat E6-1, EL-4, MG-63 and U-937) were treated with DMG for 24 hr prior to culture with melanoma cells. Similarly, PBMC were also treated with DMG and cultured with melanoma cells. […]
# [3] = system: melanoma cells; assay: Co-culture proliferation assay: DMG treated stimulated MG-63 with melanoma cells; assay type: cell-based; conditions: DMG treated stimulated MG-63 (produces IFN-β) in co-culture
# Description: as §1, §2, §3
# [4] = system: prostate adenocarcinoma cell line PC-3; assay: Co-culture proliferation assay: DMG treated stimulated PBMC with PC-3 prostate cells; assay type: cell-based, human; conditions: DMG treated stimulated PBMC in co-culture (FIG. 26)
# Description: as §4, §5
# [5] = system: IL-2 secretion in peripheral blood mononuclear cells; assay: Cytokine bioassay: IL-2 secretion by stimulated PBMC (HT-2 responder cells); assay type: cell-based; conditions: 100 mM DMG
# Description: (§6) Heparinized peripheral blood from healthy control volunteers was collected and layered onto room temperature (RT) polysucrose sodium diatriazoate (Histopaque 1077, Sigma Chemical Co.) in 15-ml conical tubes. These were centrifuged at 400×g for 30 minutes. Mononuclear cells were collected and washed in 10-ml phosphate buffered saline (PBS). Following a 10 min centrifugation and 250×g, the PBS were decanted and the wash step repeated. Cells were counted in a hemocytometer and adjusted to 2×10^6 cells/ml. These cells were later used in cytokine bioassays, Co-culture and in flow cytometry. Modulation of inflammatory cytokine production in Peripheral Blood Mononuclear Cells (PBMC) by DMG, was determined by the use of cytokine bioassays. Supernatants of DMG treated and untreated PBMC which produce cytokines (producers) on stimulation with mitogens (PMA and/or lonomycin), were added to responder cell lines specific for the respective cytokine. Proliferation or inhibition of these indicator cells signal the extent of cytokine secretion by the producer cell lines. The optimum cell number/well for each cell line was determined after a titration assay. PBMC were plated on 48 well plates in a concentration of 5×10^6 cells/well. […] Samples are read at 4 hours using a BIO-RAD benchmark microplate reader at 490 nm. […]
# [6] = system: IL-2 secretion in Jurkat E6-1 cell line; assay: Cytokine bioassay: IL-2 secretion by Jurkat E6-1 cells (CTLL-2 responder cells); assay type: cell-based, human
# Description: (§7) Cytokine bioassays utilizing cell proliferation assays were performed to assess modulation of inflammatory cytokine production by DMG (House-Development in biological Standardization 1999 (97) 13-19). Supernatants from cytokine producing cell lines (untreated control and DMG treated), were added to responder cell lines specific for that cytokine. Proliferation or inhibition of these responder/indicator cells signal the extent of cytokine secreted by the producer cell lines. The optimum cell number/well for each cell line was determined after a titration assay. All suspension producer cell lines such at THP-1, Jurkat E6-1, EL-4 and U-937 were plated on 48 well plates in a concentration of 5×10^6 cells/well, where as adherent producer cells such as LS174T were plated at a concentration of 5×10^5 cells/well. Suspension responder cell lines (CTLL-2 and 7TD-1) were used at a concentration of 1×10^6 cells/well in a 96 well plate, whereas the adherent responder cell lines (L-929 and A375.S2) were plated at a concentration of 3×10^4 cells/well and 4×10^4 cells/well respectively. THP-1 cells, which secrete Tumor Necrosis Factor-alpha (TNF-α), when stimulated with lipopolysaccharide (LPS), were treated with increasing concentrations of DMG for a period of 24 hours at 37° C. in a humidified 5% CO2 incubator. […] Samples are read at 4 hours using a BIO-RAD benchmark microplate reader at 490 nm. […]
# [7] = system: TNF-α secretion in THP-1 cell line; assay: Cytokine bioassay: TNF-α secretion by LPS-stimulated THP-1 cells (L-929 indicator cells); assay type: cell-based; conditions: 100 mM DMG, 24 h, measured by L-929 cells (FIG. 2)
# Description: as §7
# [8] = system: IL-1 secretion in peripheral blood mononuclear cells; assay: Cytokine bioassay: IL-1 secretion by stimulated PBMC (A375.S2 responder cells); assay type: cell-based; conditions: 100 mM DMG
# Description: as §6
# [9] = system: Caski human cervical carcinoma cells; assay: Co-culture proliferation assay: DMG treated Jurkat E6-1 with Caski cervical cells; assay type: cell-based; conditions: Jurkat E6-1 treated with DMG 24 hours prior to culture (FIG. 22-23)
# Description: as §1, §2, §3
# [10] = system: TNF alpha secretion in peripheral blood mononuclear cells; assay: Cytokine bioassay: TNF-α secretion by stimulated PBMC (L-929 indicator cells); assay type: cell-based; conditions: 100 mM DMG, PBMC stimulated with PMA and Ionomycin; L-929 indicator cells (FIG. 7)
# Description: as §6
# [11] = system: MCF-7 breast cancer cells; assay: Co-culture proliferation assay: DMG treated Jurkat E6-1 with MCF-7 breast cancer cells; assay type: cell-based, human; conditions: Jurkat E6-1 treated with DMG 24 hours prior to culture (FIG. 17)
# Description: as §1, §2, §3
# [12] = system: IL-1 secretion in U-937 cell line; assay: Cytokine bioassay: IL-1 secretion by U-937 cells (A375.S2 indicator cells); assay type: cell-based; conditions: detected by decreased proliferation of A375.S2 (FIG. 3)
# Description: as §7
# [13] = system: MCF-7 breast cancer cell line; assay: Co-culture proliferation assay: DMG treated stimulated PBMC with MCF-7 cells; assay type: cell-based, human; conditions: DMG treated stimulated PBMC in co-culture (FIG. 19)
# Description: as §4, §5
# [14] = system: IL-2 secretion in EL-4 cell line; assay: Cytokine bioassay: IL-2 secretion by EL-4 cells (CTLL-2 responder cells); assay type: cell-based, mouse
# Description: as §7
# [15] = system: T47D breast cancer cell line; assay: Co-culture proliferation assay: DMG treated Jurkat E6-1 with T47D breast cancer cells; assay type: cell-based, human; conditions: Jurkat E6-1 treated with DMG 24 hours prior to culture (FIG. 18)
# Description: as §1, §2, §3
# [16] = system: melanoma cells; assay: Co-culture proliferation assay: DMG treated stimulated Jurkat E6-1 with melanoma cells; assay type: cell-based; conditions: PMA/Ionomycin stimulated Jurkat E6-1 in co-culture
# Description: as §1, §2, §3
# [17] = system: A375.S2 melanoma cells; assay: Co-culture proliferation assay: DMG treated PBMC with A375.S2 melanoma cells; assay type: cell-based, human
# Description: as §4, §5
# [18] = system: SiHa human cervical carcinoma cells; assay: Co-culture proliferation assay: DMG treated Jurkat E6-1 with SiHa cervical cells; assay type: cell-based; conditions: Jurkat E6-1 treated with DMG 24 hours prior to culture (FIG. 24-25)
# Description: as §1, §2, §3
# [19] = system: IL-6 secretion in LS 174T cell line; assay: Cytokine bioassay: IL-6 secretion by LS 174T cells (7TD1 responder cells); assay type: cell-based; conditions: 100 mM DMG, LS 174T (FIG. 6)
# Description: as §7
# [20] = system: T47D breast cancer cell line; assay: Co-culture proliferation assay: DMG treated stimulated PBMC with T47D cells; assay type: cell-based, human; conditions: DMG treated stimulated PBMC in co-culture (FIG. 20)
# Description: as §4, §5
smiles,measurement,setting,value
"CN(C)CC(=O)O [DMG, N,N-dimethylglycine]",decrease in the proliferation of A375.S2 cells,[1],30%
same,inhibition at 100000 µM,[2],13%
same,melanoma inhibition,[3],increased level of melanoma inhibition
same,inhibition of PC-3 cell line,[4],dose response inhibition
same,enhancement of IL-2 expression levels,[5],10%
same,increase of IL-2 secretion,"[6]; 10 mM DMG, Jurkat E6-1 (FIG. 4)",3%
same,increase of IL-2 levels (increase in proliferation of CTLL-2),"[6]; 100 mM DMG, Jurkat E6-1 supernatant (FIG. 4)",10%
same,increase of TNF-α levels over baseline control levels,[7],7%
same,enhancement of IL-1 expression levels,[8],8%
same,inhibition of Caski cell line,[9],dose response inhibition
same,increase of TNF-α over stimulated baseline controls,[10],9%
same,inhibition of MCF-7 cells,[11],dose dependent effect
same,increase of IL-1 secretion,[12]; 10 mM DMG,4.5%
same,increase of IL-1 secretion,[12]; 100 mM DMG,6.5%
same,inhibition of MCF-7 cell line,[13],dose response inhibition
same,increase of IL-2 secretion,"[14]; 10 mM DMG, EL-4 (FIG. 5)",2.5%
same,increase of IL-2 levels (increase in proliferation of CTLL-2),"[14]; 100 mM DMG, EL-4 supernatant (FIG. 5)",6%
same,inhibition of T47D cells,[15],typical dose dependent effect
same,increased inhibition of melanoma cells over baseline stimulated control,[16],8%
same,proliferation decrease in melanoma cell growth over stimulated baseline control,"[17]; PBMC treated with 100 mM DMG, A375.S2 co-culture",17%
same,"A375.S2 proliferation, dose dependence",[17]; PBMC treated with increasing concentrations of DMG,Significant dose dependent reductions
same,inhibition of SiHa cell line,[18],dose response inhibition
same,increase of IL-6 production levels,[19],7%
same,inhibition of T47D cell line,[20],dose response inhibition
